Patent publication US10869844B2, “Methods for the treatment of depression” (Janssen Pharmaceutica NV, priority 2014, dated 2020)
Where two headings read alike, the source gives them in different places.

Experiments:
[1] = system: adult subjects with TRD; type: in vivo, human; settings: for Non-responders % / Non-responders N / Responders % (MADRS total score reduction >50% TRD2001, ≥50% TRD2002) / Responders N (MADRS total score reduction >50% TRD2001, ≥50% TRD2002): after first infusion (Day 2 TRD2001, Day 3 or 4 TRD2002)
Procedure: (§1) Association between changes in MADRS total score from baseline and the SNP rs6265 after a single dose was evaluated in placebo subjects and active subjects using an ANCOVA model under a dominant model with baseline MADRS total score, and grouped genotype (Val/Val or Met carrier). A statistically significant result was found in active subjects (p=0.02).
as §1, with “the % responders” for “changes in MADRS total score from baseline”, “a logistic regression” for “an ANCOVA”, “score” for “score,”, “(p=0.03).” for “(p=0.02).”
Association between the % remitters and the SNP rs6265 after a single dose was evaluated in placebo subjects and as well as in active subjects using a logistic regression model under a dominant model with baseline MADRS total score and grouped genotype (Val/Val or Met carrier).

[2] = system: adult subjects with TRD; settings: for Day 17 responders who maintained response status up to Day 35, % / Day 17 responders who maintained response status up to Day 35, number: all subjects
[3] = system: patients with major depressive disorders; settings: cited from earlier work
[4] = system: Met/Met knocked in mice; settings: LIU, Biol. Psychiatry 2012; cited from earlier work

## CNC1(c2ccccc2Cl)CCCCC1=O (racemic) [Ketamine, ketamine]
[1]; Met carriers
  Non-responders %: 92.3%
  Non-responders N: 12
  Responders % (MADRS total score reduction >50% TRD2001, ≥50% TRD2002): 7.7%
  Responders N (MADRS total score reduction >50% TRD2001, ≥50% TRD2002): 1
[1]; Val/Val
  Non-responders %: 71.4%
  Non-responders N: 15
  Responders % (MADRS total score reduction >50% TRD2001, ≥50% TRD2002): 28.6%
  Responders N (MADRS total score reduction >50% TRD2001, ≥50% TRD2002): 6
[1]; acute, single dose administration
  Clinical response associated with Met allele of Val66Met rs6265: smaller clinical response
[2]; Met carriers (of 7)
  Day 17 responders who maintained response status up to Day 35, %: 42.9%
  Day 17 responders who maintained response status up to Day 35, number: 3
[2]; Val/Val (of 12)
  Day 17 responders who maintained response status up to Day 35, %: 91.7%
  Day 17 responders who maintained response status up to Day 35, number: 11
[2]; among all subjects (Val/Val and Met carriers)
  Responders on Day 17, number: 19
[2]; among all subjects, Met carriers
  Responders on Day 17, number: 7
[2]; among all subjects, Val/Val
  Responders on Day 17, number: 12
[3]; MDD patients, LAJE, Biol. Psychiatry 2012
  Likelihood of antidepressant response, Val/Val BDNF allele at rs6265 vs Met carriers: more likely to exhibit antidepressant response to ketamine than Met carriers
[3]; patients with major depressive disorders
  Onset of rapid antidepressant effect: within two hours
[4]
  Antidepressant-like response, Met/Met knocked in mice compared to Val/Val mice: blunted antidepressant-like response
  Synaptogenesis, Met/Met knocked in mice compared to Val/Val mice: reduced synaptogenesis
